Measurements as given in US20220249394A1 (priority 2019, published 2022).

Biological target: protease K-resistance prion protein (PrP^Sc) in ScN2a cells (Mus musculus, UniProt P04925)
Type: cell-based
Conditions: 6 mM HFIP for 24 hours, protease K 10 μg/ml 37° C. 30 minutes, Western blotting, FIG. 2 #5 to #8

For `OC(C(F)(F)F)C(F)(F)F` [HFIP, 1,1,1,3,3,3-hexafluoro-2-propanol], the “resistance of prion protein to protease K” value was “resistance to protease K was reduced”.
